Experiments:
JAK2(h) = biological target: T1, JAK2(h) (Homo sapiens, UniProt O60674); assay: In vitro activity assay of JAK2 kinase (radiometric, [γ-33P]-ATP); assay type: biochemical; conditions: recombinant human JAK2, 40 min at room temperature
T1 construct: purchased Eurofins, UK
Description: (§1) Recombinant human JAK1, JAK2, JAK3 and Tyk2 […], and main instruments and reagents were all provided by Eurofins, UK.
(§2) Dilution of JAK2, JAK3 and TYK2: 20 mM 3-(N-morpholino)propanesulfonic acid (MOPS), 1 mM EDTA, 0.01% Brij-35.5% glycerol, 0.1% β-mercaptoethanol, and 1 mg/mL BSA; dilution of JAK1: 20 mM TRIS, 0.2 mM EDTA, 0.1% β-mercaptoethanol, and 0.01% Brij-35.5% glycerol. All compounds were prepared as 100% DMSO solutions, and the concentration was brought to 50 times the final assay concentration. A test compound was diluted with a 3-fold gradient, with a total of 9 final concentrations ranging from 10 μM to […]. The DMSO content in the assay reaction was 2%. The working stock solution of the compound was added into the assay wells as a first component of the reaction, and the remaining components were then added according to the protocol detailed for the assay below.
JAK2(h) was incubated with 8 mM MOPS pH 7.0, 0.2 mM EDTA, 100 μM […] (SEQ ID NO: 2), 10 mM magnesium acetate and [γ-^33P]-ATP (the activity and concentration were tailored as required). The reaction was started by adding a Mg/ATP mixture, and terminated by adding 0.5% phosphoric acid after 40 min of incubation at room temperature. 10 μL of the reactant was then dotted on a P30 filter pad, washed three times with 0.425% phosphoric acid and once with methanol within 4 minutes, and dried, and scintillation counting was performed.
(§3) The IC50 results were obtained by analysis using XLFITS (formula 205) of IDBS company and detailed in Table 1.

JAK3(h) = biological target: T2, JAK3(h) (Homo sapiens, UniProt P52333); assay: In vitro activity assay of JAK3 kinase (radiometric, [γ-33P]-ATP); assay type: biochemical; conditions: recombinant human JAK3, 40 min at room temperature
T2 construct: purchased Eurofins, UK
T2 sequence (P52333 1-1124): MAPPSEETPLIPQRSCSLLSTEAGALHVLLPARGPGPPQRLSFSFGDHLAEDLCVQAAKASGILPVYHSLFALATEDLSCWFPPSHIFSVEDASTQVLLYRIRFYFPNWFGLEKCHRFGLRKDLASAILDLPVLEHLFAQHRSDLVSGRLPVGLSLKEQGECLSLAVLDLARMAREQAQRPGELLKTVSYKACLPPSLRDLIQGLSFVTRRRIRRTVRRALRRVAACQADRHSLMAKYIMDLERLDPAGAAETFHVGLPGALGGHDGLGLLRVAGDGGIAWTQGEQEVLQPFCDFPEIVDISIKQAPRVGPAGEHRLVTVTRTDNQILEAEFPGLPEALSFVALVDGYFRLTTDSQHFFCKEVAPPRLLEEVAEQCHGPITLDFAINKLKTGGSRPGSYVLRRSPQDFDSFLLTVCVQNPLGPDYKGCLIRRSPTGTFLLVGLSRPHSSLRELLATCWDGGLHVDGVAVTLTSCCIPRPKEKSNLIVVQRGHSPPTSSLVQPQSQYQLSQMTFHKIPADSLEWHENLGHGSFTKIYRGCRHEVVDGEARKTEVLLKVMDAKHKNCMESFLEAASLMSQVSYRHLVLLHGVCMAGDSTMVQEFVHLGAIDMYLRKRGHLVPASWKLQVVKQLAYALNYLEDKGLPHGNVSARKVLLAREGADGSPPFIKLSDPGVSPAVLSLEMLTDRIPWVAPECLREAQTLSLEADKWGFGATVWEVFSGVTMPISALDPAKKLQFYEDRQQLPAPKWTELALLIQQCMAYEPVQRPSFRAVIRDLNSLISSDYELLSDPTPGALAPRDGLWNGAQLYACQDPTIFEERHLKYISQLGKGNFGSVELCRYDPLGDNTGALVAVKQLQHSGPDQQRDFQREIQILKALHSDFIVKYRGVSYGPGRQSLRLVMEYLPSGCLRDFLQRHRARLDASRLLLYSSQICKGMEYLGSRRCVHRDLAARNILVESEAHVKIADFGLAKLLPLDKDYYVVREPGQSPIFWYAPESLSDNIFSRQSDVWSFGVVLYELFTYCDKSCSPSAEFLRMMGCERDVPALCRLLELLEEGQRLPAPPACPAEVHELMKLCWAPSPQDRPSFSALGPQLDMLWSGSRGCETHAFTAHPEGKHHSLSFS
Description: as §1, §2
(§4) JAK3(h) was incubated with 8 mM MOPS pH 7.0, 0.2 mM EDTA, 500 μM GGEEEEYFELVKKKK (SEQ ID NO: 3), 10 mM magnesium acetate and [γ-^33P]-ATP (the activity and concentration were tailored as required). The reaction was started by adding a Mg/ATP mixture, and terminated by adding 0.5% phosphoric acid after 40 min of incubation at room temperature. 10 μL of the reactant was then dotted on a P30 filter pad, washed three times with 0.425% phosphoric acid and once with methanol within 4 minutes, and dried, and scintillation counting was performed.
as §3

TYK2(h) = biological target: T3, TYK2(h) (Homo sapiens, UniProt P29597); assay: In vitro activity assay of TYK2 kinase (radiometric, [γ-33P]-ATP); assay type: biochemical; conditions: recombinant human Tyk2, 40 min at room temperature
T3 construct: purchased Eurofins, UK
T3 sequence (P29597 whole entry): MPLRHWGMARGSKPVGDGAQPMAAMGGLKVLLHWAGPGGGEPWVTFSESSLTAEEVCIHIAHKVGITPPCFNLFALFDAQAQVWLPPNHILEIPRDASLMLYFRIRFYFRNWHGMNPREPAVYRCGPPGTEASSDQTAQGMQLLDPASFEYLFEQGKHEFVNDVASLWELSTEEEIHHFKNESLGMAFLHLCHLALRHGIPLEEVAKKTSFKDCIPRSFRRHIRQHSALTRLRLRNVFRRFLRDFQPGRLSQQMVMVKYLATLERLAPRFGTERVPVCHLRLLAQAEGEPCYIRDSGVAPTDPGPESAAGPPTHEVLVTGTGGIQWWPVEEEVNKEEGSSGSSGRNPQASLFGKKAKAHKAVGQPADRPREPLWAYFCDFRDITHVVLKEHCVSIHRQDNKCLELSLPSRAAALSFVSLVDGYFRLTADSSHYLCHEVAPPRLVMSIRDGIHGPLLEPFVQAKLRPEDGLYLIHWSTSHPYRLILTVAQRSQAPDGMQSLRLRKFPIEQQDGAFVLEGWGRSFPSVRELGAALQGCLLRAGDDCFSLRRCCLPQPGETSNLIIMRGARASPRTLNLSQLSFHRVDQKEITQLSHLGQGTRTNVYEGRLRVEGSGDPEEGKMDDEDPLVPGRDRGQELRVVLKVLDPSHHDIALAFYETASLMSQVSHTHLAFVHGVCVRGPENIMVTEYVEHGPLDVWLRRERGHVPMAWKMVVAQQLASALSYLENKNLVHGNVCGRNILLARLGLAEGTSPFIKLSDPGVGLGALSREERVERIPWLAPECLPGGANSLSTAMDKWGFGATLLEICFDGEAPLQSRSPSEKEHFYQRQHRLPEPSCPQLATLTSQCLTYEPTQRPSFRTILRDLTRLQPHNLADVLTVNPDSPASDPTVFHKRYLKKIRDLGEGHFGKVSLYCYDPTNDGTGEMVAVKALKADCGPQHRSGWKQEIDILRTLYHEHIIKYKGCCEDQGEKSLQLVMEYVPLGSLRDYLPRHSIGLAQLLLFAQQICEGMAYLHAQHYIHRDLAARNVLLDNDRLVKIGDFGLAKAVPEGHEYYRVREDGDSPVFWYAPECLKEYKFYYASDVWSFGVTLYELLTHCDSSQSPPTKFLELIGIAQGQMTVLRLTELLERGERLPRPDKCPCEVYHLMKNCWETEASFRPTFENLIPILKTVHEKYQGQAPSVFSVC
Description: as §1, §2
TYK2(h) was incubated with 8 mM MOPS pH 7.0, 0.2 mM EDTA, 250 μM GGMEDIYFEFMGGKKK (SEQ ID NO:4), 10 mM magnesium acetate and [γ-^33P]-ATP (the activity and concentration were tailored as required). The reaction was started by adding a Mg/ATP mixture, and terminated by adding 0.5% phosphoric acid after 40 min of incubation at room temperature. 10 μL of the reactant was then dotted on a P30 filter pad, washed three times with 0.425% phosphoric acid and once with methanol within 4 minutes, and dried, and scintillation counting was performed.
as §3

JAK1(h) = biological target: T4, JAK1(h) (Homo sapiens, UniProt P23458); assay: In vitro activity assay of JAK1 kinase (radiometric, [γ-33P]-ATP); assay type: biochemical; conditions: recombinant human JAK1, 40 min at room temperature
T4 construct: purchased Eurofins, UK
T4 sequence (P23458 whole entry): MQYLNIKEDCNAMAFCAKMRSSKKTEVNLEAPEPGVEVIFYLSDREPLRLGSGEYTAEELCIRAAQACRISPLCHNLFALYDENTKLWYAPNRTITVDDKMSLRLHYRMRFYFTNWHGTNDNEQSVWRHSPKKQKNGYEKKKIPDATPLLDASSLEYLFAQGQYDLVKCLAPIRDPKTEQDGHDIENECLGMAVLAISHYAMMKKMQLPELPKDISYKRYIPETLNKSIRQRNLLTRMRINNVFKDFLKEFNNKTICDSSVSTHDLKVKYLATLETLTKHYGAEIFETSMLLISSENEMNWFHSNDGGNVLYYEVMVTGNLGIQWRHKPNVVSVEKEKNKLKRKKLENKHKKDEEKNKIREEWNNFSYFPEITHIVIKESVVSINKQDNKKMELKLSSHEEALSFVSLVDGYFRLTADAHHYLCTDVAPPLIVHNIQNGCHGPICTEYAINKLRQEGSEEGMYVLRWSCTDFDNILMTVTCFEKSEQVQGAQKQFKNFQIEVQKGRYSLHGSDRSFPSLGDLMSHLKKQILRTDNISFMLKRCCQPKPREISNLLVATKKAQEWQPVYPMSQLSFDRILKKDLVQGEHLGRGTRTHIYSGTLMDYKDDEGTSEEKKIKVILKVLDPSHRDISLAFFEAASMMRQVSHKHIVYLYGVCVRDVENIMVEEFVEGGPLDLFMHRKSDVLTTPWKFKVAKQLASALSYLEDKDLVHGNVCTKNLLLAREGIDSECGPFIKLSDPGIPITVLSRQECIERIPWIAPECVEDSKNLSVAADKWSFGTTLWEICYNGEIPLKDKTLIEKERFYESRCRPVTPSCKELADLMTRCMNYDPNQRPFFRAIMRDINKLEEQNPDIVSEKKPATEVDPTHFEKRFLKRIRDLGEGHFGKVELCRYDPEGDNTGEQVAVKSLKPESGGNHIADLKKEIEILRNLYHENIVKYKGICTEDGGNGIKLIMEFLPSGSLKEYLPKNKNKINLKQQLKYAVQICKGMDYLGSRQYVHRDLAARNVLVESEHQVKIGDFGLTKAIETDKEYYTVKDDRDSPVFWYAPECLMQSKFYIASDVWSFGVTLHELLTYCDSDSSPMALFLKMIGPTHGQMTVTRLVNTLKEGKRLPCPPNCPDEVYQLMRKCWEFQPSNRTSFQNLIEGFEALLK
Description: as §1, §2
as §4, with “JAK1(h)” for “JAK3(h)”, “20” for “8”, “Tris/HC” for “MOPS”, “7.5,” for “7.0,”, “MGEEPLYWSFPAKKK” for “GGEEEEYFELVKKKK”, “1),” for “3),”
as §3

[1] = Pharmacokinetic (PK) experiment in rats; assay type: in vivo; conditions: Sprague-Dawley (SD), rat, plasma, po, male SD rats; for AUC(0-inf) / Cmax / half-life: fasted, tail vein injection 1 mg/kg and gavage 5 mg/kg, route not given; for AUC(0-inf): read-out: AUC0-inf (area under plasma concentration-time curve from time 0 extrapolated to infinite time); for Cmax: read-out: Cmax (peak concentration); for half-life: read-out: T1/2 (half-life) (converted); for bioavailability: gavage 5 mg/kg vs tail vein injection 1 mg/kg
Description: A test compound was dissolved [5% DMSO, 95% (12% SBE-β-CD)] to give a clear solution, which was administered into male rats (SD) (overnight fasting, 7-8 weeks old) by tail vein injection and by gavage, respectively. After administration of the test compound, blood was collected from the mandibular vein and centrifuged to obtain plasma at 0.117, 0.333, 1, 2, 4, 7 and 24 h in the tail vein injection group (1 mg/kg), and at 0.25, 0.5, 1, 2, 4, 8 and 24 h in the gavage group (5 mg/kg). The plasma concentration was measured using LC-MS/MS method, and the relevant pharmacokinetic parameters were calculated using WinNonlin™ Version 6.3 pharmacokinetic software with non-compartmental model linear logarithmic trapezoidal method.

[2] = tested on: collagen-induced arthritis (CIA); assay: In vivo efficacy study of collagen-induced arthritis (CIA) in rats; parameters: species or system Lewis rats; conditions: for Clinical score (on day 14 of administration) Mean ± SEM / Foot volume (mL, on day 14 of administration) Mean ± SEM: rat CIA
Description: [table] The compounds of the present application were tested for their therapeutic effect on arthritis using a rat collagen-induced arthritis model. Lewis rats were immunized. The day of the first immunization was recorded as day 0, and the subsequent days were recorded in order. The Lewis rats were anesthetized with isoflurane and injected with 50 μL of prepared collagen emulsion (containing 200 μg of CII) subcutaneously in the tail (2-3 cm away from the base of the tail). On day 21, the same volume of the collagen emulsion was injected in the tail in the same manner. Rats in the normal group were not immunized. On day 27 of the modeling, the rats were divided into groups and administered corresponding test compounds. For example, the female Lewis rats were orally administered different doses (see Table 4-1 for specific doses) of a solution of test compound 4 in a mixed solvent [0.5% HPMC E5/0.5% PVP K30/0.2% SLS in water] twice a day (8 test animals in each dose group). During 14 consecutive days of administration, the states of the rats were observed, and the foot volume swellings were recorded and scored.

[3] = tested on: adjuvant-induced arthritis (AIA); assay: In vivo efficacy study of adjuvant-induced arthritis (AIA) in rats; parameters: species or system female Lewis rats; conditions: for Inhibition rate of area under clinical score curve, AUC (%): two weeks, rat AIA
Description: Experimental procedures: the compounds of the present application were tested for their therapeutic effect on arthritis using a rat adjuvant arthritis model. Female Lewis rats weighing 160-180 g were anesthetized with isoflurane and injected with 0.1 mL of Mycobacterium tuberculosis suspension subcutaneously in the left hind paw. 13 days after the modeling, the rats were divided into groups and given corresponding test compounds. For example, the female Lewis rats were orally administered different doses (see Table 3-2 for specific doses) of a solution of test compound 1A in a mixed solvent [5% DMSO, 95% (12% SBE-β-CD)] twice a day (10 test animals in each dose group). During two consecutive weeks of administration, the states of the rats were observed, and the foot volume swellings were recorded and scored.

T1 sequence (O60674 whole entry): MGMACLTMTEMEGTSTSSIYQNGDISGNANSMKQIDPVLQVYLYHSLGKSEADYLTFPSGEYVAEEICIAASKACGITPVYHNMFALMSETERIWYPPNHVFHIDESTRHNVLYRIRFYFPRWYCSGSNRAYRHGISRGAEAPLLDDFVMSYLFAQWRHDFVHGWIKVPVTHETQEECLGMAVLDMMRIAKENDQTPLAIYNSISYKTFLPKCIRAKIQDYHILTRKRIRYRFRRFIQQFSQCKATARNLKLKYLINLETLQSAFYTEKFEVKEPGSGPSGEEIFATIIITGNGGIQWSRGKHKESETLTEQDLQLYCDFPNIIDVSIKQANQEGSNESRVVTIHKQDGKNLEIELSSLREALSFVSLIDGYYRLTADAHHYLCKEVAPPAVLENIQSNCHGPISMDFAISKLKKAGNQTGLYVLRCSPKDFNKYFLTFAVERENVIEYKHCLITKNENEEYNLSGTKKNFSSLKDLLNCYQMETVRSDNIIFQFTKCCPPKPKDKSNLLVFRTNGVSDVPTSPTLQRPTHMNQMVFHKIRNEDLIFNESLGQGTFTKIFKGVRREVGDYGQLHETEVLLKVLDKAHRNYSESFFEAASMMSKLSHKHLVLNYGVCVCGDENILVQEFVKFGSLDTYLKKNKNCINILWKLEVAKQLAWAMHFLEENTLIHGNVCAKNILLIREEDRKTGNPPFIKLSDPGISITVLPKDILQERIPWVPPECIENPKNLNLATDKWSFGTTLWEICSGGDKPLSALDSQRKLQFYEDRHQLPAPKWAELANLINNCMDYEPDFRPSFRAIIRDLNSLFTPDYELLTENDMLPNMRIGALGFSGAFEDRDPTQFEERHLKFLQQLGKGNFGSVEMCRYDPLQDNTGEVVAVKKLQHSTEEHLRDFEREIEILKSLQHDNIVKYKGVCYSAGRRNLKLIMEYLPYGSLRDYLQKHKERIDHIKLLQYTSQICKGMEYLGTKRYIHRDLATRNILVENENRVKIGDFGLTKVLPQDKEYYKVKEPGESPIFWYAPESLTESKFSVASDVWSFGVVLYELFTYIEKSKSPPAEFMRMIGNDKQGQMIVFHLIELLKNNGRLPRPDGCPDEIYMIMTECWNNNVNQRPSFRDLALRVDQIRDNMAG

Structure (SMILES) | IC50 (JAK2(h)) [nM] | IC50 (JAK3(h)) [nM] | IC50 (TYK2(h)) [nM] | IC50 (JAK1(h)) [nM] | also measured
COc1nc2cnc3[nH]ccc3c2n1[C@H]1CCc2cc(C#N)nn2C1 [Compound 6] | 70.2 | 73.8 | 130 | 2.3 | 
C[C@@H](O)c1nc2cnc3[nH]ccc3c2n1[C@H]1CCc2cc(C#N)nn2C1 [Compound 7] | 53.9 | 38.4 | 12.4 | 0.3 | 
N#Cc1cc2n(n1)CC(n1c(C(F)(F)F)nc3cnc4[nH]ccc4c31)CC2 (single isomer, unassigned) [Compound 3A] | 62 | 217 | 57 | 3 | 
COc1nc2cnc3[nH]ccc3c2n1[C@@H]1CCc2cc(C#N)nn2C1 [Compound 4] | 7 | 27.3 | 50.3 | 0.9 | AUC(0-inf) [1]: 67.8 µM·h; Cmax [1]: 10.2 µM; half-life [1]: 3.65 h; bioavailability [1]: 119%; Clinical score (on day 14 of administration) Mean ± SEM ([2]; 1 mg/kg oral BID): 0.38 ± 0.16; Foot volume (mL, on day 14 of administration) Mean ± SEM ([2]; 1 mg/kg oral BID): 1.32 ± 0.04 mL; Body weight recovery ([2]; 3 mg/kg BID, end of administration at day 14): recovers to the level in the normal group; Foot volume (mL, on day 14 of administration) Mean ± SEM ([2]; 3 mg/kg oral BID): 1.28 mL; Degree of the foot volume swelling ([2]; BID at 1 and 3 mg/kg): reduced in a dose-dependent manner; Effect on clinical scores of the arthritic rats ([2]; BID at 1 and 3 mg/kg, significant difference from solvent control): reduces the clinical scores of the arthritic rats in a dose-dependent manner
C[C@@H]1C[C@H]2[C@@H]3CCC4=CC(=O)C=C[C@]4(C)[C@@]3(F)[C@@H](O)C[C@]2(C)[C@@]1(O)C(=O)CO [Dexamethasone, reference compound] |  |  |  |  | Clinical score (on day 14 of administration) Mean ± SEM ([2]; 0.1 mg/kg): 0.00 ± 0.00; Foot volume (mL, on day 14 of administration) Mean ± SEM ([2]; 0.1 mg/kg): 1.22 ± 0.042 mL
N#Cc1cc2n(n1)CC(n1cnc3cnc4[nH]ccc4c31)CC2 (single isomer, unassigned) [Compound 1A] | 27 | 30.8 | 35.8 | 1.3 | AUC(0-inf) [1]: 8.51 µM·h; Cmax [1]: 2.94 µM; half-life [1]: 1.35 h; bioavailability [1]: 41.8%; Inhibition rate of area under clinical score curve, AUC (%) ([3]; 3 mg/kg oral twice a day): 49.8%; Mean arthritis clinical score, peak ([3]; 10 mg/kg group, day 13 (day of grouping, start of dosing)): 5.8; Mean arthritis clinical score at the experimental endpoint ([3]; 10 mg/kg group, day 27): 1.3; Inhibition rate of area under clinical score curve, AUC (%) ([3]; 10 mg/kg oral twice a day): 60.3%; Effect on the downward trend of the weight in animals caused by the disease attack ([3]; 3 and 10 mg/kg groups, significant difference from solvent control from day 20): significant relieving effect on the downward trend of the weight; Effect on increase in arthritis clinical score and foot volume ([3]; 3 and 10 mg/kg oral twice a day, dose-dependent): inhibited the increase in arthritis clinical score and foot volume
C[C@@H](O)c1nc2cnc3[nH]ccc3c2n1[C@@H]1CCc2cc(C#N)nn2C1 [Compound 5] | 250 | 576 | 231 | 9 | 
Cc1nc2cnc3[nH]ccc3c2n1C1CCc2cc(C#N)nn2C1 (single isomer, unassigned) [Compound 2A] | 2 | 25 | 2 | < 1 | 
